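Briefly, cells in 96-well plates were exposed to five compound concentrations for 48 h, and endpoints were estimated by linear interpolation. TGI: concentration producing complete growth inhibition.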
Columns and labels:
Assay in all cases: NCI tumour cell line growth inhibition, 48 h
K-562 leukemia = system: K-562 leukemia
RPMI-8226 leukemia = system: RPMI-8226 leukemia
SW-620 colon = system: SW-620 colon
MCF7 breast = system: MCF7 breast
UACC-257 melanoma = system: UACC-257 melanoma
PC-3 prostate = system: PC-3 prostate
UO-31 renal = system: UO-31 renal
LOX IMVI melanoma = system: LOX IMVI melanoma
SN12C renal = system: SN12C renal
BT-549 breast = system: BT-549 breast
SK-MEL-5 melanoma = system: SK-MEL-5 melanoma
COLO 205 colon = system: COLO 205 colon
NCI-H226 lung = system: NCI-H226 lung
HS 578T breast = system: HS 578T breast
T-47D breast = system: T-47D breast
SK-MEL-28 melanoma = system: SK-MEL-28 melanoma
UACC-62 melanoma = system: UACC-62 melanoma
KM12 colon = system: KM12 colon
M14 melanoma = system: M14 melanoma
SF-295 CNS = system: SF-295 CNS
SF-539 CNS = system: SF-539 CNS
DU-145 prostate = system: DU-145 prostate
NCI-H460 lung = system: NCI-H460 lung
IGROV1 ovarian = system: IGROV1 ovarian
MDA-MB-231 breast = system: MDA-MB-231 breast
OVCAR-8 ovarian = system: OVCAR-8 ovarian
MDA-N = system: MDA-N
HT29 colon = system: HT29 colon
SNB-19 CNS = system: SNB-19 CNS
SNB-75 CNS = system: SNB-75 CNS
MOLT-4 leukemia = system: MOLT-4 leukemia
OVCAR-5 ovarian = system: OVCAR-5 ovarian
OVCAR-3 ovarian = system: OVCAR-3 ovarian
HCT-116 colon = system: HCT-116 colon
NCI/ADR-RES ovarian = system: NCI/ADR-RES ovarian
TK-10 renal = system: TK-10 renal
HL-60(TB) leukemia = system: HL-60(TB) leukemia
U251 CNS = system: U251 CNS
NCI-H522 lung = system: NCI-H522 lung
SF-268 CNS = system: SF-268 CNS
HOP-62 NSCLC = system: HOP-62 NSCLC
SR leukemia = system: SR leukemia
786-0 renal = system: 786-0 renal
A498 renal = system: A498 renal
MALME-3M melanoma = system: MALME-3M melanoma
A549 NSCLC = system: A549 NSCLC
OVCAR-4 ovarian = system: OVCAR-4 ovarian
ACHN renal = system: ACHN renal
CCRF-CEM leukemia = system: CCRF-CEM leukemia
NCI-H23 lung = system: NCI-H23 lung
EKVX NSCLC = system: EKVX NSCLC
HOP-92 NSCLC = system: HOP-92 NSCLC
CAKI-1 renal = system: CAKI-1 renal
HCT-15 colon = system: HCT-15 colon
MDA-MB-435 = system: MDA-MB-435
SK-MEL-2 melanoma = system: SK-MEL-2 melanoma
RXF 393 renal = system: RXF 393 renal
SK-OV-3 ovarian = system: SK-OV-3 ovarian

COC(=O)C(Cc1c[nH]c2ccccc12)NP(=O)(O)OCC1OC(n2ccc(N)nc2=O)C(O)C1O (configuration not stated)
TGI (K-562 leukemia): > 100 µM | TGI (RPMI-8226 leukemia): > 100 µM | TGI (SW-620 colon): > 100 µM | TGI (MCF7 breast): > 100 µM | TGI (UACC-257 melanoma): > 100 µM | TGI (PC-3 prostate): > 100 µM | TGI (UO-31 renal): > 100 µM | TGI (LOX IMVI melanoma): > 100 µM | TGI (SN12C renal): > 100 µM | TGI (BT-549 breast): > 100 µM | TGI (SK-MEL-5 melanoma): > 100 µM | TGI (COLO 205 colon): > 100 µM | TGI (NCI-H226 lung): > 100 µM | TGI (HS 578T breast): > 100 µM | TGI (T-47D breast): > 100 µM | TGI (SK-MEL-28 melanoma): > 100 µM | TGI (UACC-62 melanoma): > 100 µM | TGI (KM12 colon): > 100 µM | TGI (M14 melanoma): > 100 µM | TGI (SF-295 CNS): > 100 µM | TGI (SF-539 CNS): > 100 µM | TGI (DU-145 prostate): > 100 µM | TGI (NCI-H460 lung): > 100 µM | TGI (IGROV1 ovarian): > 100 µM | TGI (MDA-MB-231 breast): > 100 µM | TGI (OVCAR-8 ovarian): > 100 µM | TGI (MDA-N): > 100 µM | TGI (HT29 colon): > 100 µM | TGI (SNB-19 CNS): > 100 µM | TGI (SNB-75 CNS): > 100 µM | TGI (MOLT-4 leukemia): > 100 µM | TGI (OVCAR-5 ovarian): > 100 µM | TGI (OVCAR-3 ovarian): > 100 µM | TGI (HCT-116 colon): > 100 µM | TGI (NCI/ADR-RES ovarian): > 100 µM | TGI (TK-10 renal): > 100 µM | TGI (HL-60(TB) leukemia): > 100 µM | TGI (U251 CNS): > 100 µM | TGI (NCI-H522 lung): > 100 µM | TGI (SF-268 CNS): > 100 µM | TGI (HOP-62 NSCLC): > 100 µM | TGI (SR leukemia): > 100 µM | TGI (786-0 renal): > 100 µM | TGI (A498 renal): > 100 µM | TGI (MALME-3M melanoma): > 100 µM | TGI (A549 NSCLC): > 100 µM | TGI (OVCAR-4 ovarian): > 100 µM | TGI (ACHN renal): > 100 µM | TGI (CCRF-CEM leukemia): > 100 µM | TGI (NCI-H23 lung): > 100 µM | TGI (EKVX NSCLC): > 100 µM | TGI (HOP-92 NSCLC): > 100 µM | TGI (CAKI-1 renal): > 100 µM | TGI (HCT-15 colon): > 100 µM | TGI (MDA-MB-435): > 100 µM

CC(C)(C)c1ccc(O)c(CN(Cc2c(O)ccc3ccccc23)C2CCCCC2)c1
TGI (K-562 leukemia): 52.1 µM | TGI (RPMI-8226 leukemia): > 100 µM | TGI (SW-620 colon): 85.2 µM | TGI (SK-MEL-2 melanoma): 31.3 µM | TGI (MCF7 breast): 31.9 µM | TGI (UACC-257 melanoma): 29.3 µM | TGI (PC-3 prostate): 28.5 µM | TGI (UO-31 renal): 29.2 µM | TGI (LOX IMVI melanoma): 23.9 µM | TGI (SN12C renal): 33.1 µM | TGI (BT-549 breast): 34.4 µM | TGI (SK-MEL-5 melanoma): 30.2 µM | TGI (COLO 205 colon): 29.3 µM | TGI (HS 578T breast): 84.3 µM | TGI (T-47D breast): 44.3 µM | TGI (SK-MEL-28 melanoma): 46 µM | TGI (UACC-62 melanoma): 30.1 µM | TGI (KM12 colon): 39.6 µM | TGI (M14 melanoma): 25.7 µM | TGI (SF-295 CNS): 38.1 µM | TGI (SF-539 CNS): 30.8 µM | TGI (RXF 393 renal): 33.6 µM | TGI (DU-145 prostate): 60.9 µM | TGI (NCI-H460 lung): 30.4 µM | TGI (IGROV1 ovarian): 32.7 µM | TGI (MDA-MB-231 breast): 30.6 µM | TGI (OVCAR-8 ovarian): 31.8 µM | TGI (MDA-N): 29.3 µM | TGI (HT29 colon): 31.6 µM | TGI (SK-OV-3 ovarian): 58.6 µM | TGI (SNB-19 CNS): 43.9 µM | TGI (SNB-75 CNS): 32.3 µM | TGI (MOLT-4 leukemia): 54.9 µM | TGI (OVCAR-5 ovarian): 32.4 µM | TGI (OVCAR-3 ovarian): 34.3 µM | TGI (HCT-116 colon): 30.9 µM | TGI (NCI/ADR-RES ovarian): 32.4 µM | TGI (TK-10 renal): 29.2 µM | TGI (U251 CNS): 29.4 µM | TGI (NCI-H522 lung): 28.9 µM | TGI (SF-268 CNS): 30.9 µM | TGI (HOP-62 NSCLC): 36.9 µM | TGI (SR leukemia): 52.2 µM | TGI (786-0 renal): 29.2 µM | TGI (A498 renal): 37.6 µM | TGI (MALME-3M melanoma): 31.9 µM | TGI (A549 NSCLC): 48.9 µM | TGI (OVCAR-4 ovarian): 58.6 µM | TGI (ACHN renal): 33.3 µM | TGI (CCRF-CEM leukemia): > 100 µM | TGI (NCI-H23 lung): 35.3 µM | TGI (EKVX NSCLC): 30 µM | TGI (HOP-92 NSCLC): 30.7 µM | TGI (CAKI-1 renal): 32.2 µM | TGI (HCT-15 colon): 31 µM | TGI (MDA-MB-435): 52.6 µM

COc1cc2c(c(O)c1OC)C(=O)C1CCC(=O)N1C2c1cccc2ccccc12 (configuration not stated)
TGI (K-562 leukemia): 59.2 µM | TGI (RPMI-8226 leukemia): 81.2 µM | TGI (SW-620 colon): > 100 µM | TGI (SK-MEL-2 melanoma): > 100 µM | TGI (MCF7 breast): > 100 µM | TGI (UACC-257 melanoma): > 100 µM | TGI (PC-3 prostate): > 100 µM | TGI (UO-31 renal): > 100 µM | TGI (SN12C renal): > 100 µM | TGI (BT-549 breast): > 100 µM | TGI (SK-MEL-5 melanoma): > 100 µM | TGI (COLO 205 colon): 32.8 µM | TGI (NCI-H226 lung): > 100 µM | TGI (HS 578T breast): > 100 µM | TGI (T-47D breast): > 100 µM | TGI (SK-MEL-28 melanoma): > 100 µM | TGI (UACC-62 melanoma): > 100 µM | TGI (KM12 colon): > 100 µM | TGI (M14 melanoma): > 100 µM | TGI (SF-295 CNS): > 100 µM | TGI (SF-539 CNS): > 100 µM | TGI (RXF 393 renal): > 100 µM | TGI (DU-145 prostate): > 100 µM | TGI (NCI-H460 lung): > 100 µM | TGI (IGROV1 ovarian): > 100 µM | TGI (MDA-MB-231 breast): > 100 µM | TGI (OVCAR-8 ovarian): > 100 µM | TGI (MDA-N): > 100 µM | TGI (HT29 colon): > 100 µM | TGI (SK-OV-3 ovarian): > 100 µM | TGI (SNB-19 CNS): > 100 µM | TGI (SNB-75 CNS): > 100 µM | TGI (MOLT-4 leukemia): 89.6 µM | TGI (OVCAR-5 ovarian): > 100 µM | TGI (OVCAR-3 ovarian): > 100 µM | TGI (HCT-116 colon): > 100 µM | TGI (NCI/ADR-RES ovarian): > 100 µM | TGI (HL-60(TB) leukemia): 63.9 µM | TGI (U251 CNS): > 100 µM | TGI (NCI-H522 lung): > 100 µM | TGI (SF-268 CNS): > 100 µM | TGI (HOP-62 NSCLC): > 100 µM | TGI (SR leukemia): > 100 µM | TGI (786-0 renal): > 100 µM | TGI (A498 renal): > 100 µM | TGI (MALME-3M melanoma): > 100 µM | TGI (A549 NSCLC): > 100 µM | TGI (OVCAR-4 ovarian): > 100 µM | TGI (ACHN renal): > 100 µM | TGI (CCRF-CEM leukemia): 77 µM | TGI (NCI-H23 lung): > 100 µM | TGI (EKVX NSCLC): > 100 µM | TGI (HOP-92 NSCLC): 89.5 µM | TGI (CAKI-1 renal): > 100 µM | TGI (HCT-15 colon): > 100 µM | TGI (MDA-MB-435): > 100 µM

Reference: PubChem BioAssay (NCI)
